Assay results from BindingDB's records for doi:10.7270/Q2959G0B (Nmmlsc, 2009).

Target: Ras-related C3 botulinum toxin substrate 1 (Mus musculus, UniProt P63001)
Experiment: Rac1 wildtype GTP binding inhibitors, SAR follow-up, biochemical, pyrazoline analogs, multiplex, flow cytometry, Ki (AID 2055)
Conditions: not given

O=S(=O)(O)c1ccc(N2N=C(c3ccccc3)CC2c2ccccc2)cc1 (configuration not stated) [UNM-0000305834] was tested, and the EC50 was 30 µM.

Same assay, conditions: inactive by the depositor's call

Compared with O=C(O)c1ccc(N2N=C(c3ccccc3)CC2c2ccccc2)cc1 (configuration not stated), Brc1ccc(N2N=C(c3ccccc3)CC2c2ccccc2)cc1 (configuration not stated) is 5.7-fold lower in EC50: 54.7 µM for the first, 9.53 µM for the second. The second is the more potent here.

COc1cccc(C2CC(c3ccccc3)=NN2c2ccc(S(N)(=O)=O)cc2)c1 (configuration not stated) [4-[3-(3-methoxyphenyl)-5-phenyl-3,4-dihydropyrazol-2-yl]benzenesulfonamide] and Cc1cccc(C2CC(c3ccccc3)=NN2c2ccc(S(N)(=O)=O)cc2)c1 (configuration not stated) are the same in EC50: 30 µM for the first, 30 µM for the second.

O=[N+]([O-])c1ccc([N+]2=N[C-](c3ccccc3)CC2c2ccc(O)cc2)cc1 (configuration not stated) [UNM-0000305838] and COc1ccc(C2C[C-](c3ccccc3)N=[N+]2c2ccc([N+](=O)[O-])cc2)cc1 (configuration not stated) [3-(4-methoxyphenyl)-2-(4-nitrophenyl)-5-phenyl-3,4-dihydropyrazole] are the same in EC50: 30 µM for the first, 30 µM for the second.

COc1ccc(C2CC(c3ccccc3C(F)(F)F)=NN2c2ccc(S(N)(=O)=O)cc2)cc1 (configuration not stated) [KUC103474N] and COc1ccc(C2CC(c3ccccc3C)=NN2c2ccc(S(N)(=O)=O)cc2)cc1 (configuration not stated) [UNM-0000306152] are the same in EC50: 30 µM for the first, 30 µM for the second.

COc1ccc(-c2cc(-c3ccccc3)nn2-c2ccc(S(N)(=O)=O)cc2)cc1 [4-[5-(4-methoxyphenyl)-3-phenylpyrazol-1-yl]benzenesulfonamide] and COc1ccc(C2CC(c3cccc(F)c3)=NN2c2ccc(S(N)(=O)=O)cc2)cc1 (configuration not stated) [4-[5-(3-fluorophenyl)-3-(4-methoxyphenyl)-3,4-dihydropyrazol-2-yl]benzenesulfonamide] are the same in EC50: 30 µM for the first, 30 µM for the second.

COc1ccc(C2=NN(c3ccc(Cl)cc3)C(c3ccccc3F)C2)cc1 (configuration not stated) [UNM-0000305863] and COc1ccc(C2=NN(c3ccccc3)C(c3ccc(Cl)cc3)C2)cc1 (configuration not stated) [UNM-0000305833] are the same in EC50: 30 µM for the first, 30 µM for the second.

Cc1ccc(C2CC(c3ccccc3)=NN2c2ccc(S(N)(=O)=O)cc2)cc1 (configuration not stated) and NS(=O)(=O)c1ccc(N2N=C(c3ccccc3)CC2c2ccc(Br)cc2)cc1 (configuration not stated) [UNM-0000306160] are the same in EC50: 30 µM for the first, 30 µM for the second.

COc1ccc(C2=NN(c3ccc(S(N)(=O)=O)cc3)C(c3ccc(OC)cc3)C2)cc1 (configuration not stated) [4-[3,5-bis(4-methoxyphenyl)-3,4-dihydropyrazol-2-yl]benzenesulfonamide] and COc1ccc(C2CC(c3ccc(F)cc3)=NN2c2ccc(S(N)(=O)=O)cc2)cc1 (configuration not stated) [4-[5-(4-fluorophenyl)-3-(4-methoxyphenyl)-3,4-dihydropyrazol-2-yl]benzenesulfonamide] are the same in EC50: 30 µM for the first, 30 µM for the second.

Cc1ccccc1[N+]1=N[C-](c2ccccc2)CC1c1cccc([N+](=O)[O-])c1 (configuration not stated) [UNM-0000305854] and O=[N+]([O-])c1cccc(C2C[C-](c3ccccc3)N=[N+]2c2ccccc2)c1 (configuration not stated) [UNM-0000305857] are the same in EC50: 30 µM for the first, 30 µM for the second.

COc1ccc(C2CC(c3ccc(C(F)(F)F)cc3)=NN2c2ccc(S(N)(=O)=O)cc2)cc1 (configuration not stated) [4-[3-(4-methoxyphenyl)-5-[4-(trifluoromethyl)phenyl]-3,4-dihydropyrazol-2-yl]benzenesulfonamide] and COc1ccc(C2CC(c3cccc(C(F)(F)F)c3)=NN2c2ccc(S(N)(=O)=O)cc2)cc1 (configuration not stated) are the same in EC50: 30 µM for the first, 30 µM for the second.

First: COc1ccc(C2CC(c3ccccc3)=NN2c2ccc(S(N)(=O)=O)cc2)cc1OC (configuration not stated) [UNM-0000305823]
Second: COc1ccc(C2CC(c3ccc(Cl)cc3)=NN2c2ccccc2)cc1OC (configuration not stated) [UNM-0000305858]
The EC50 of the first is 2.3-fold lower: 13.2 µM for the first, 30 µM for the second. The first is the more potent here.

COc1ccc(C2CC(c3cccs3)=NN2c2ccc(S(N)(=O)=O)cc2)cc1 (configuration not stated) [KUC103438N] and COc1ccc(C2CC(c3ccsc3)=NN2c2ccc(S(N)(=O)=O)cc2)cc1 (configuration not stated) [4-[3-(4-methoxyphenyl)-5-thiophen-3-yl-3,4-dihydropyrazol-2-yl]benzenesulfonamide] are the same in EC50: 30 µM for the first, 30 µM for the second.

Compared with NS(=O)(=O)c1ccc(N2N=C(c3ccc(Br)cc3)CC2c2ccc(F)cc2)cc1 (configuration not stated) [4-[5-(4-bromophenyl)-3-(4-fluorophenyl)-3,4-dihydropyrazol-2-yl]benzenesulfonamide], COc1ccc(C2CC(c3ccc(Cl)cc3)=NN2c2ccc(S(N)(=O)=O)cc2)cc1 (configuration not stated) is 2100-fold higher in EC50: 0.014 µM for the first, 30 µM for the second. The first is the more potent here.

COc1ccc(C2=NN(c3cccc(F)c3)C(c3ccc(OC)cc3)C2)cc1 (configuration not stated) [2-(3-fluorophenyl)-3,5-bis(4-methoxyphenyl)-3,4-dihydropyrazole] and COc1ccc(C2=NN(c3ccc(Cl)c(Cl)c3)C(c3ccc(OC)cc3)C2)cc1 (configuration not stated) [2-(3,4-dichlorophenyl)-3,5-bis(4-methoxyphenyl)-3,4-dihydropyrazole] are the same in EC50: 30 µM for the first, 30 µM for the second.

Going from COc1ccc(C2CC(c3ccc(F)cc3)=NN2c2cc(Cl)ccc2Cl)cc1 (configuration not stated) [2-(2,5-dichlorophenyl)-5-(4-fluorophenyl)-3-(4-methoxyphenyl)-3,4-dihydropyrazole] to COc1ccc(C2=NN(c3ccccc3F)C(c3ccc(F)cc3)C2)cc1 (configuration not stated) [UNM-0000305860], the EC50 rises from 0.089 µM to 30 µM (340-fold). The first is the more potent here.

Clc1cccc(N2N=C(c3ccccc3)CC2c2ccccc2)c1 (configuration not stated) and Cc1cccc(N2N=C(c3ccccc3)CC2c2ccccc2)c1 (configuration not stated) [UNM-0000305835] are the same in EC50: 30 µM for the first, 30 µM for the second.

COc1ccc(C2CC(c3ccccc3)=NN2c2ccc(Cl)c(C(=O)O)c2)cc1OC (configuration not stated) [2-chloro-5-[3-(3,4-dimethoxyphenyl)-5-phenyl-3,4-dihydropyrazol-2-yl]benzoic acid] and COc1ccc(C2CC(c3ccccc3)=NN2c2ccc(Cl)c(C(=O)O)c2)cc1 (configuration not stated) are the same in EC50: 30 µM for the first, 30 µM for the second.

COc1ccc(C2CC(c3cccc(Br)c3)=NN2c2ccc(S(N)(=O)=O)cc2)cc1 (configuration not stated) [UNM-0000306113] and COc1ccc(C2CC(c3cccc(OC)c3)=NN2c2ccc(S(N)(=O)=O)cc2)cc1 (configuration not stated) [4-[5-(3-methoxyphenyl)-3-(4-methoxyphenyl)-3,4-dihydropyrazol-2-yl]benzenesulfonamide] are the same in EC50: 30 µM for the first, 30 µM for the second.

Cc1ccccc1N1N=C(c2ccccc2)CC1c1ccc(N(C)C)cc1 (configuration not stated) [N,N-dimethyl-4-[2-(2-methylphenyl)-5-phenyl-3,4-dihydropyrazol-3-yl]aniline] and CN(C)c1ccc(C2CC(c3ccccc3)=NN2c2ccccc2)cc1 (configuration not stated) [4-(2,5-diphenyl-3,4-dihydropyrazol-3-yl)-N,N-dimethylaniline] are the same in EC50: 30 µM for the first, 30 µM for the second.

COc1ccc(C2CC(C(C)(C)C)=NN2c2ccc(S(N)(=O)=O)cc2)cc1 (configuration not stated) [KUC103450N] and COc1ccc(C2CC(C3CCCCC3)=NN2c2ccc(S(N)(=O)=O)cc2)cc1 (configuration not stated) [4-[5-cyclohexyl-3-(4-methoxyphenyl)-3,4-dihydropyrazol-2-yl]benzenesulfonamide] are the same in EC50: 30 µM for the first, 30 µM for the second.

COc1ccc(C2CC(c3cccnc3)=NN2c2ccc(S(N)(=O)=O)cc2)cc1 (configuration not stated) and COc1ccc(C2CC(c3ccncc3)=NN2c2ccc(S(N)(=O)=O)cc2)cc1 (configuration not stated) are the same in EC50: 30 µM for the first, 30 µM for the second.

FC(F)(F)c1cccc(N2N=C(c3ccc(Cl)cc3)CC2c2ccccc2Cl)c1 (configuration not stated) [UNM-0000305859] and FC(F)(F)c1ccccc1C1CC(c2ccc(Br)cc2)=NN1c1ccccc1 (configuration not stated) [5-(4-bromophenyl)-2-phenyl-3-[2-(trifluoromethyl)phenyl]-3,4-dihydropyrazole] are the same in EC50: 30 µM for the first, 30 µM for the second.

CN(C)c1ccc(C2CC(c3ccc(F)cc3)=NN2c2ccccc2)cc1 (configuration not stated) [UNM-0000305866] and COc1ccc(C2CC(c3ccc(F)cc3)=NN2c2ccccc2)cc1OC (configuration not stated) [UNM-0000305864] are the same in EC50: 30 µM for the first, 30 µM for the second.

NS(=O)(=O)c1ccc(N2N=C(c3ccccc3)CC2c2cccc(Br)c2)cc1 (configuration not stated) [UNM-0000306147] and NS(=O)(=O)c1ccc(N2N=C(c3ccccc3)CC2c2ccccc2)cc1 (configuration not stated) [4-(3,5-diphenyl-3,4-dihydropyrazol-2-yl)benzenesulfonamide] are the same in EC50: 30 µM for the first, 30 µM for the second.

COc1ccc(C2CC(c3ccccc3)=NN2c2ccc(C(=O)O)cc2)cc1 (configuration not stated) [UNM-0000306085] and COc1ccc(C2CC(c3ccccc3Cl)=NN2c2ccc(S(N)(=O)=O)cc2)cc1 (configuration not stated) [4-[5-(2-chlorophenyl)-3-(4-methoxyphenyl)-3,4-dihydropyrazol-2-yl]benzenesulfonamide] are the same in EC50: 30 µM for the first, 30 µM for the second.

NS(=O)(=O)c1ccc(N2N=C(c3ccc(Cl)cc3)CC2c2ccccc2)cc1 (configuration not stated) and O=S(=O)(c1ccc(N2N=C(c3ccc(Br)cc3)CC2c2ccccc2)cc1)C(F)F (configuration not stated) [5-(4-bromophenyl)-2-[4-(difluoromethylsulfonyl)phenyl]-3-phenyl-3,4-dihydropyrazole] are the same in EC50: 30 µM for the first, 30 µM for the second.

NS(=O)(=O)c1ccc(N2N=C(c3ccccc3)CC2c2ccccc2Br)cc1 (configuration not stated) [4-[3-(2-bromophenyl)-5-phenyl-3,4-dihydropyrazol-2-yl]benzenesulfonamide] and Cc1ccccc1C1CC(c2ccccc2)=NN1c1ccc(S(N)(=O)=O)cc1 (configuration not stated) [UNM-0000306148] are the same in EC50: 30 µM for the first, 30 µM for the second.

Clc1ccc(N2N=C(c3ccccc3)CC2c2ccccc2)cc1 (configuration not stated) and O=S(=O)(c1ccc(N2N=C(c3ccccc3)CC2c2ccccc2)cc1)C(F)F (configuration not stated) are the same in EC50: 30 µM for the first, 30 µM for the second.

COc1ccccc1N1N=C(c2ccccc2)CC1c1ccccc1 (configuration not stated) [UNM-0000305855] and COc1ccccc1C1CC(c2ccccc2)=NN1c1ccccc1 (configuration not stated) are the same in EC50: 30 µM for the first, 30 µM for the second.

Cc1onc(-c2ccccc2)c1-c1ccc(S(N)(=O)=O)cc1 and COc1ccc(C2CC(c3ccccc3Br)=NN2c2ccc(S(N)(=O)=O)cc2)cc1 (configuration not stated) [UNM-0000306112] are the same in EC50: 30 µM for the first, 30 µM for the second.

For CN(C)c1ccc(C2C[C-](c3ccccc3)N=[N+]2c2ccc([N+](=O)[O-])cc2)cc1 (configuration not stated), the EC50 was 20.4 µM.
